The numbers were not newly measured in patent US5993850A, “Preparation of multivesicular liposomes for controlled release of encapsulated biologically active substances” (priority 1994, dated 1999), which cites them from elsewhere.

The test system of the series is strains of both gram negative and gram positive bacteria. The settings on record: background statement; cited from earlier work.

Regarding `NCC[C@H](O)C(=O)N[C@@H]1C[C@H](N)[C@@H](O[C@H]2O[C@H](CN)[C@@H](O)[C@H](O)[C@H]2O)[C@H](O)[C@H]1O[C@H]1O[C@H](CO)[C@@H](O)[C@H](N)[C@H]1O` [amikacin], the antibacterial activity entry is “clinically significant activity against strains of both gram negative and gram positive bacteria”.
